Laboratory results: ChEMBL document CHEMBL1153522, “Spirocyclic delta opioid receptor agonists for the treatment of pain: discovery of N,N-diethyl-3-hydroxy-4-(spiro[chromene-2,4'-piperidine]-4-yl) benzamide (ADL5747)” (J Med Chem, 2009)

How the values were obtained:
[1] = Cmax in Beagle dog at 3 mg/kg, po administered as single dose; format: ADME, organism-based, Canis lupus familiaris; design: dose 3 mg/kg, route oral; details: in vivo
[2] = AUC (0 to infinity) in rat at 2.5 mg/kg, iv administered as single dose; format: ADME, organism-based; design: time infinity, dose 2.5 mg/kg, route intravenous; details: plasma
[3] = Cmax in rat at 10 mg/kg, po administered as single dose; format: ADME, organism-based; design: dose 10 mg/kg, route oral; details: in vivo
[4] = Volume of distribution at steady state in rat at 2.5 mg/kg, iv administered as single dose; format: ADME, organism-based; design: dose 2.5 mg/kg, route intravenous; details: in vivo, read-out: Vdss
[5] = tested on: CYP3A4; test: In vitro stability in presence of human CYP3A4 assessed as compound remaining at 1 uM after 1 hr; format: ADME; details: read-out: Stability
[6] = Metabolic stability in human liver microsomes assessed as compound remaining after 30 mins; format: ADME, Microsome; details: read-out: Stability
[7] = organism: Canis familiaris; test: Plasma concentration in Beagle dog after 15 to 30 mins; format: ADME, organism-based, Canis lupus familiaris; details: in vivo
[8] = Volume of distribution at steady state in Beagle dog at 1 mg/kg, iv administered as single dose; format: ADME, organism-based, Canis lupus familiaris; design: dose 1 mg/kg, route intravenous; details: in vivo, read-out: Vdss
[9] = Oral bioavailability in rat at 10 mg/kg administered as single dose; format: ADME, organism-based; details: in vivo
[10] = Tmax in rat at 10 mg/kg, po administered as single dose; format: ADME, organism-based; design: dose 10 mg/kg, route oral; details: in vivo
[11] = Metabolic stability in rat liver microsomes assessed as compound remaining after 30 mins; format: ADME, Microsome; details: read-out: Stability
[12] = tested on: CYP2C19; test: In vitro stability in presence of human CYP2C19 assessed as compound remaining at 1 uM after 1 hr; format: ADME; details: read-out: Stability
[13] = AUC in rat plasma at 30 mg/kg, po administered as single dose after 6 hrs; format: ADME, organism-based; design: time < 6 hr, dose 30 mg/kg, route oral
[14] = AUC (0 to infinity) in rat at 10 mg/kg, po administered as single dose; format: ADME, organism-based; design: time infinity, dose 10 mg/kg, route oral; details: plasma
[15] = Oral bioavailability in Beagle dog at 3 mg/kg administered as single dose; format: ADME, organism-based, Canis lupus familiaris; details: in vivo
[16] = Half life in Beagle dog at 3 mg/kg, po administered as single dose; format: ADME, organism-based, Canis lupus familiaris; design: dose 3 mg/kg, route oral; details: in vivo
[17] = Systemic clearance in rat at 2.5 mg/kg, iv administered as single dose; format: ADME, organism-based; design: dose 2.5 mg/kg, route intravenous; details: in vivo
[18] = AUC (0 to infinity) in Beagle dog at 1 mg/kg, iv administered as single dose; format: ADME, organism-based, Canis lupus familiaris; design: time infinity, dose 1 mg/kg, route intravenous; details: plasma
[19] = tested on: CYP2D6; test: In vitro stability in presence of human CYP2D6 assessed as compound remaining at 1 uM after 1 hr; format: ADME; details: read-out: Stability
[20] = AUC in rat brain raphe magnus at 30 mg/kg, po administered as single dose after 6 hrs; format: ADME, organism-based; design: dose 30 mg/kg, route oral; details: read-out: Drug uptake
[21] = Half life in rat at 2.5 mg/kg, iv administered as single dose; format: ADME, organism-based; design: dose 2.5 mg/kg, route intravenous; details: in vivo
[22] = Half life in Beagle dog at 1 mg/kg, iv administered as single dose; format: ADME, organism-based, Canis lupus familiaris; design: dose 1 mg/kg, route intravenous; details: in vivo
[23] = AUC (0 to infinity) in Beagle dog at 3 mg/kg, po administered as single dose; format: ADME, organism-based, Canis lupus familiaris; design: time infinity, dose 3 mg/kg, route oral; details: plasma
[24] = Half life in rat at 10 mg/kg, po administered as single dose; format: ADME, organism-based; design: dose 10 mg/kg, route oral; details: in vivo
[25] = Systemic clearance in Beagle dog at 1 mg/kg, iv administered as single dose; format: ADME, organism-based, Canis lupus familiaris; design: dose 1 mg/kg, route intravenous; details: in vivo
[26] = Metabolic stability in Beagle dog liver microsomes assessed as compound remaining after 30 mins; format: ADME, Canis lupus familiaris, Microsome; details: read-out: Stability
[27] = Tmax in Beagle dog at 3 mg/kg, po administered as single dose; format: ADME, organism-based, Canis lupus familiaris; design: dose 3 mg/kg, route oral; details: in vivo
[28] = tested on: Rattus norvegicus; test: fAUC in rat plasma at 30 mg/kg, po administered as single dose after 6 hrs; format: ADME, organism-based; design: dose 30 mg/kg, route oral; details: in vivo

CCN(CC)C(=O)c1ccc(C2=CC3(CCNCC3)Oc3ccccc32)c(O)c1 [ADL-5747 FREE BASE]
Cmax [1]: 852 ng/mL
AUC(0-inf) [2]: 780 ng·h/mL
Cmax [3]: 246 ng/mL
Vd [4]: 18.1 L/kg
remaining at 1 h, 1 µM [5]: 22.5%
remaining at 0.5 h [6]: 94.5%
Cp [7]: 808 ng/mL
Vd [8]: 5.1 L/kg
bioavailability [9]: 37.6%
Tmax [10]: 1.3 h
remaining at 0.5 h [11]: 59.7%
remaining at 1 h, 1 µM [12]: 78.4%
AUC at 6 h [13]: 4610 ng·h/mL
AUC(0-inf) [14]: 1150 ng·h/mL
bioavailability [15]: 54.5%
half-life [16]: 7.7 h
clearance [17]: 55 mL/min/kg
AUC(0-inf) [18]: 2640 ng·h/mL
remaining at 1 h, 1 µM [19]: 63.2%
AUC at 6 h [20]: 105 ng·h/mL
half-life [21]: 5.3 h
half-life [22]: 12.2 h
AUC(0-inf) [23]: 4200 ng·h/mL
half-life [24]: 4.9 h
clearance [25]: 6.33 mL/min/kg
remaining at 0.5 h [26]: 63.9%
Tmax [27]: 0.4 h
fAUC [28]: 990 ng·h/mL
